{"source": "patent US4933365A", "about": "“Phospholipase A2 inhibitors” (American Home Products Corporation, priority 1989, dated 1990)", "key": {"[1]": {"test_system": "vascular cutaneous permeability induced by snake venom PLA2 (Naja mocambique mocambique PLA2)", "experiment": "reduction of vascular cutaneous permeability induced by snake venom PLA2", "assay_type": "in vivo, guinea pig (male Hartley)", "conditions": "for % Inhibition: standard drug"}, "carrageenan paw edema": {"test_system": "carrageenan paw edema", "experiment": "rat carrageenan paw edema", "assay_type": "in vivo, rat (male Sprague-Dawley)", "conditions": "po, 3 h, read-out: Oral ED50 (95% C.L.)", "procedure": "The compounds in the scope of the invention are further tested in the rat carrageenan paw edema to determine their ability to inhibit the acute inflammatory response.\nThis assay is carried out as follows:\n[…] male Sprague-Dawley rats, in groups of 6 animals are injected subcutaneously in the right paw with 0.1 ml of 1% carrageenan at zero time. Mercury plethysmographic readings (ml) of the paw made at zero time and 3 hours later. Test compounds are suspended or dissolved in 0.5% methylcellulose and given perorally 1 hour prior to carrageenan administration.\nThe increase in paw volume (edema in ml.) produced by the carrageenan is measured. Paw edema is calculated (3 hour volume minus zero time volume), and percent inhibition of edema is determined. Unpaired Student's t-test is used to determine statistical significance."}, "[2]": {"test_system": "synthesis of the arachidonic acid cyclooxygenase oxidation product TxB2", "experiment": "inhibition of TxB2 synthesis (cyclooxygenase) by rat PMN", "assay_type": "cell-based, rat (female Wistar)", "conditions": "A23187 stimulated rat PMN", "procedure": "Rat polymorphonuclear leukocytes (PMNs) are obtained from female Wistar rats (150-200 g) which receive an injection of 6% glycogen (10 ml i.p.). Rats are sacrificed 18-24 hours post injection by CO2 asphyxiation and the elicited cells are harvested by peritoneal lavage using physiological saline (0.9% NaCl). The exudate is centrifuged at 400×g for 10 minutes. The supernatant fluid is discarded and the cell pellet is resuspended to concentration of 2.0×10^7 cells/ml in HBSS containing Ca^++ and Mg^++ and 10 μM L-cysteine.\nTo 1 ml aliquots of cell suspension, test drugs or vehicle are added, then preincubated at 37° C. for 10 minutes. A23187 (1 μM) and [^3 H]-AA (3.0 μCi/ml) are then added and the samples are further incubated for 10 minutes. The reaction is terminated by centrifugation and pelleting cells. Supernatants are then analyzed by HPLC analysis on a 15 cm ×4.6 mm ID Supelcosil LC-18 (Supelco)(3M) column, using a two solvent system at a flow rate of 1.4 ml total flow as follows:\nInjections: 150 μl of each supernatant is injected directly onto column and ^3 H arachidonic acid metabolites are monitored using an on-line radioactivity detector (Ramona, IN/US, Fairfield, N.J.).\nCo-chromatography with standard [^3 H] leukotriene B4 (LTB4) in medium of stimulated PMN exposed to drug is compared to that found in medium of stimulated cells exposed to no drug, generating percent inhibition.\nResults are expressed as percent inhibition at a given compound dose.\nIn this assay, the procedure of Example 13 is carried out as described. However, in order to determine cyclooxygenase activity, the samples are co-chromatographed with authentic reference [^3 H]--TxB2.\nThe results are calculated as in Example 13 and present below: […]"}, "[3]": {"test_system": "oxazolone-induced contact hypersensitivity in the mouse ear", "experiment": "oxazolone-induced contact hypersensitivity in the mouse ear", "assay_type": "in vivo, mouse (female Swiss Webster)", "conditions": "dosed at 1 mg/ear", "procedure": "The assay of this Example measures the ability of the compound in the scope of the invention to inhibit oxazolone-induced contact hypersensitiveity in the mouse ear.\nThe assay is carried out as follows:\nFemale, Swiss Webster mice (8 weeks old) are placed into groups of 6 and the abdominal area of each is shaved. The mice are sensitized to oxazolone (4-ethoxymethylene-2-phenyl-oxazol-5-one) by applying 100 μl of a 2% solution in 95% alcohol directly onto the shaved abdomen using an automatic pipette and rubbing the residual oxaxolone into the skin with a round wooden stick. Six days after sensitization each mouse is challenged by applying 20 μl if a 2% oxazolone solution in 95% alcohol to the right ear (10 μl of alcohol alone to the left ear. Compounds for topical applications are prepared in acetone and administered to the right ear 30 min after challenge or 30 min prior to and 5 h after challenge; acetone (vehicle) is applied to the left ear. Compounds for oral administration are suspended in 0.5 ml of 0.5% methyl cellulose and given ten min prior to challenge. Ear thickness of both ears is measured in mm×10^- 2 at 24 and 48 h after challenge using an Oditest caliper. Edema is calculated by subtracting the left ear thickness from the right ear thickness. Drug effects are determined by calculating the percentage change from control for each time period."}}, "data": [{"compound": "COC(=O)C1(C(F)=CCCCOc2ccc(Cl)cc2)CO1", "note": "(stereo not drawn) [6 (fluoro-vinyl compound), 2-[5-(4-Chlorophenoxy)-1-fluoro-1-pentenyl]-2-oxiranecarboxylic acid methyl ester]", "values": [{"measurement": "% Inhibition, iv at 100 mg/kg", "setting": "[1]", "result": 32, "unit": "%"}]}, {"compound": "CC(=O)Oc1ccccc1C(=O)O", "note": "[Aspirin]", "values": [{"measurement": "ED50", "setting": "carrageenan paw edema", "result": 145, "unit": "mg/kg"}]}, {"compound": "NC1=NN(c2cccc(C(F)(F)F)c2)CC1", "note": "[BW 755c]", "values": [{"measurement": "% Inhibition", "setting": "[1]; 200 mg/kg p.o.", "result": 65.3, "unit": "%"}]}, {"compound": "CN(C)CCC(c1ccc(Cl)cc1)c1ccccn1", "note": "(stereo not drawn) [Chlorpheniramine]", "values": [{"measurement": "% Inhibition", "setting": "[1]; 2 mg/kg p.o.", "result": 45.0, "unit": "%"}]}, {"compound": "C[C@@H]1C[C@H]2[C@@H]3CCC4=CC(=O)C=C[C@]4(C)[C@@]3(F)[C@@H](O)C[C@]2(C)[C@@]1(O)C(=O)CO", "note": "[Dexamethasone]", "values": [{"measurement": "% Inhibition", "setting": "[1]; 10 mg/kg p.o.", "result": 49.0, "unit": "%"}]}, {"compound": "COC(=O)C1(C(=O)CCCCOc2ccc(Cl)cc2)CO1", "note": "(stereo not drawn) [Example 6A, 2-[5-(4-Chlorophenoxy)-1-oxopentyl]-2-oxiranecarboxylic acid methyl ester]", "values": [{"measurement": "inhibition at 10 µM", "setting": "[2]", "result": 30, "unit": "%"}]}, {"compound": "COC(=O)C1(C(=O)CCCCc2ccccc2)CO1", "note": "(stereo not drawn) [Example 9, 2-(5-Phenyl-1-oxopentyl)-2-oxiranecarboxylic acid methyl ester]", "values": [{"measurement": "inhibition at 10 µM", "setting": "[2]", "result": 1, "unit": "%"}, {"measurement": "% Inhibition", "setting": "[3]", "result": 22.0, "unit": "%"}]}, {"compound": "CCOC(=O)C1(CCCCCc2ccc(Cl)cc2)CO1", "note": "(stereo not drawn) [Example 10, 2-[5-(4-Chlorophenyl)pentyl]-2-oxiranecarboxylic acid ethyl ester]", "values": [{"measurement": "% Inhibition, iv at 100 mg/kg", "setting": "[1]", "result": 24.1, "unit": "%"}, {"measurement": "inhibition at 10 µM", "setting": "[2]", "result": 4, "unit": "%"}]}, {"compound": "COc1ccc2c(c1)c(CC(=O)O)c(C)n2C(=O)c1ccc(Cl)cc1", "note": "[Indomethacin]", "values": [{"measurement": "% Inhibition", "setting": "[1]; 50 mg/kg p.o.", "result": 15.0, "unit": "%"}, {"measurement": "ED50", "setting": "carrageenan paw edema", "result": 3.7, "unit": "mg/kg"}]}]}
